# From ChEMBL document CHEMBL1140652 (Bioorg Med Chem Lett, 2007)
# Tests used:
# Escherichia coli = assay: microbe, parasite or virus in culture
# Description: Inhibition of transcription and translation activity in Escherichia coli by luciferase reporter assay
# Staphylococcus aureus = assay: microbe, parasite or virus in culture; settings: SA1
# Description: Antibacterial activity against Staphylococcus aureus UC76 SA1
# Streptococcus pneumoniae = assay: microbe, parasite or virus in culture; settings: SV1
# Description: Antibacterial activity against Streptococcus pneumoniae SV1 SP3
# Enterococcus faecalis = assay: microbe, parasite or virus in culture
# Description: Antibacterial activity against Enterococcus faecalis MGH2 EF1-1
# Haemophilus influenzae = assay: microbe, parasite or virus in culture
# Description: Antibacterial activity against Haemophilus influenzae HI3542
# Moraxella catarrhalis = assay: microbe, parasite or virus in culture
# Description: Antibacterial activity against Moraxella catarrhalis BC-3531
# physchem = settings: potassium phosphate buffer, pH 6.5
# Description: Aqueous solubility in potassium phosphate buffer at pH 6.5 by laser nephrometry
IC50 (Escherichia coli) [nM],MIC (Staphylococcus aureus) [µg/mL],MIC (Streptococcus pneumoniae) [µg/mL],MIC (Enterococcus faecalis) [µg/mL],MIC (Haemophilus influenzae) [µg/mL],MIC (Moraxella catarrhalis) [µg/mL],solubility kinetic (physchem) [µg/mL],Compound
13000,64,4,32,32,32,,CCN(CC)CCCNc1n[nH]c2c1CCCc1cc(N3C[C@H](CNC(C)=O)OC3=O)ccc1-2
2200,1,0.5,1,8,4,,COc1ccc(CNc2n[nH]c3c2CCCc2cc(N4C[C@H](CNC(C)=O)OC4=O)ccc2-3)cc1
1900,16,2,8,8,16,,CC(=O)NC[C@H]1CN(c2ccc3c(c2)CCCc2c(NCCN4CCOCC4)n[nH]c2-3)C(=O)O1
2100,2,0.5,1,4,2,,CC(=O)NC[C@H]1CN(c2ccc3c(c2)CCCc2c(NCCc4ccc(O)cc4)n[nH]c2-3)C(=O)O1
1700,8,0.5,1,8,8,,CC(=O)NC[C@H]1CN(c2ccc3c(c2)CCCc2c(NCCc4ccccn4)n[nH]c2-3)C(=O)O1
1300,1,0.25,1,4,4,,CCNc1n[nH]c2c1CCCc1cc(N3C[C@H](CNC(C)=O)OC3=O)ccc1-2
2900,4,1,4,16,16,,COCCCNc1n[nH]c2c1CCCc1cc(N3C[C@H](CNC(C)=O)OC3=O)ccc1-2
780,16,2,16,32,32,46,CC(=O)NC[C@H]1CN(c2ccc3c(c2)CCCc2c(NC(=O)C(O)CO)n[nH]c2-3)C(=O)O1 (some centres undefined)
1300,16,4,4,16,16,,CC(=O)NC[C@H]1CN(c2ccc3c(c2)CCCc2c(NC(=O)CO)n[nH]c2-3)C(=O)O1
1000,2,0.5,1,4,2,> 70,CNc1n[nH]c2c1CCCc1cc(N3C[C@H](CNC(C)=O)OC3=O)ccc1-2
2000,2,1,1,8,4,,CC(=O)NC[C@H]1CN(c2ccc3c(c2)CCCc2c(NCc4ccccc4)n[nH]c2-3)C(=O)O1
2200,4,0.5,2,8,8,,CC(=O)NC[C@H]1CN(c2ccc3c(c2)CCCc2c(NC(C)C)n[nH]c2-3)C(=O)O1
450,0.5,0.25,0.25,2,2,14,CC(=O)NC[C@H]1CN(c2ccc3c(c2)CCCc2cn[nH]c2-3)C(=O)O1
450,32,4,8,> 64,32,> 70,CC(=O)NC[C@H]1CN(c2ccc3c(c2)CCCc2c(NCCCN)n[nH]c2-3)C(=O)O1
2600,2,1,2,1,8,,COCCNc1n[nH]c2c1CCCc1cc(N3C[C@H](CNC(C)=O)OC3=O)ccc1-2
,1,0.5,0.5,4,2,,CC(=O)NC[C@H]1CN(c2ccc3c(c2)CCCc2c(Nc4ccccc4)n[nH]c2-3)C(=O)O1
1200,4,0.5,2,4,2,,CC(=O)NC[C@H]1CN(c2ccc3c(c2)CCCc2c(N)n[nH]c2-3)C(=O)O1
2500,2,0.25,1,4,8,,CCCNc1n[nH]c2c1CCCc1cc(N3C[C@H](CNC(C)=O)OC3=O)ccc1-2
1800,8,4,8,16,32,,CC(=O)NC[C@H]1CN(c2ccc3c(c2)CCCc2c(NCCCO)n[nH]c2-3)C(=O)O1
800,32,4,16,16,4,> 70,CC(=O)NC[C@H]1CN(c2ccc3c(c2)CCCc2c(NCCN)n[nH]c2-3)C(=O)O1
